“And” between values parts separate entries of the source, which are not always exact repeats. Equal entries are not always repeated. One block for each compound: values may come before it.
Experiments:
Aβ42 aggregates = Aβ42 aggregates (Homo sapiens, UniProt P05067); assay: Competition binding assay using [125I]4 as radio-ligand; settings: inhibition of [125I]4 binding to Aβ42 aggregates
Text: The actual binding affinities agreed well with values predicted by the CoMFA and CoMSIA models, with pKi values deviating by less than 0.5 log unit. This satisfactory result strongly validated the reliability of the established 3D-QSAR models. This ability to accurately predict the binding activities of new benzyloxybenzene derivatives will be of great help for future efforts to design new potent Aβ imaging agents.

[1] = In vivo metabolism (biostability), HPLC analysis of organ samples; settings: ICR mice, i.v.
Description: All four radioactive ligands degraded to two corresponding polar radioactive products with shorter retention times. […] The good in vivo biostability of these compounds enhances their potential for SPECT mapping of the brain. […] In the plasma, all four ligands were rapidly converted to polar metabolites, leaving only approximately 10% of the parent tracers at 60 min. […] In contrast, the breakdown of [^125I]7a and [^125I]12a was so rapid that almost negligible amounts of parent tracers remained at 30 min (8.8% and 6.3%, respectively). The polar and hydrophilic metabolites metabolized by the liver could be absorbed by the intestine and excreted through the urine, in accordance with the biodistribution results. The rapid metabolism in the liver may be another reason for the faster clearance of these compounds from the normal brain. For structurally identical molecules labeled with radioactive isotopes at different positions, the in vivo metabolic pathways were expected to be the same. However, as only radioactive products can be detected with PET/SPECT scanners, different pharmacokinetics of the radioactive components could lead to different imaging results. […] The dual radiolabeled identical benzyloxybenzene derivatives in this study were expected to undergo the same metabolic reactions, generating different radioactive metabolites. Differences in the biochemical characteristics of the radiometabolites including absorption, distribution, metabolism and excretion are responsible for the discrepancy in the pharmacokinetics of the radioactivity.

[2] = Partition coefficient determination (log D); assay type: physicochemical
Description: An ideal Aβ imaging probe would combine a high binding affinity to Aβ plaques and excellent pharmacokinetics with high initial brain uptake and rapid washout from normal brain regions. Thus, the partition coefficients of these four radiolabeled ligands were determined to estimate their ability to penetrate the BBB.

Aβ plaques = Aβ plaques (Homo sapiens, UniProt P05067); assay: In vitro autoradiography on AD human brain sections; assay type: binding
Chain of Aβ plaques (P05067 672-711 limits assumed): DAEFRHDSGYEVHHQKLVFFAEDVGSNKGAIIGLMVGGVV
Text: Figure 5 In vitro autoradiography of [^125I]7a (a–d), [^18F]7a (e–h), [^125I]12a (i–l) and [^18F]12a (m–p).

[3] = In vivo biodistribution in normal ICR mice; settings: i.v.
Description: Histograms of brain and intestine uptake were presented in Fig. 6 for comparison, while detailed data concerning the in vivo biodistribution in normal ICR mice were collected in Table S3 in Supplementary information. […] [^125I]7a and [^125I]12a were rapidly cleared from the normal brain, with only small amounts of radioactivity remaining at 60 min post-injection (0.55% ID/g for [^125I]7a and 0.37% ID/g for [^125I]12a). […] In addition, no significant deiodination was observed (less than 0.5% ID in the thyroid at 60 min).
As the specific activity of ^18F-labeled ligands (about 60 GBq/μmol) was slightly lower than that of corresponding no-carrier-added ^125I-labeled ligands (81 GBq/μmol), the impact of specific activity on pharmacokinetics was studied. In vivo biodistribution of radioactivity after injection of carrier-added [^125I]7a with equal specific activity to corresponding [^18F]7a (60 GBq/μmol) was conducted in normal ICR mice through the same procedure.
A structural model of an Aβ fiber (PDB ID: 2LMO) derived from solid state NMR was downloaded from the RCSB Protein Data Bank (www.rcsb.org/pdb). Geometric optimization was performed using Gaussian 09 at the B3LYP/6–31 G and 3-21G levels in the water phase. Molecular docking was performed using AutoDock4.0, and the docking results were graphed with VMD 1.9.1 software. SYBYL-X 1.1 software was used to predict the binding affinities with previously constructed 3D-QSAR models. All reagents for chemical synthesis were used as purchased without further purification. [^125I]NaI was purchased from PerkinElmer and ^18F^– was kindly provided by the Chinese PLA General Hospital. ^1H and ^13C NMR spectra were recorded on a Bruker Avance III NMR spectrometer (400 MHz for ^1H; 101 MHz for ^13C) in CDCl3 or DMSO-d6 solutions at room temperature. Mass spectra were acquired with a GCT CA127 Micronass UK instrument. X-ray crystallographic data of compound 12a were collected on a Bruker Smart APEX II diffractometer (Bruker Co., Germany) and deposited at the Cambridge Crystallographic Data Centre as supplementary publication (no. CCDC 1063679). HPLC analysis was performed on a Shimadzu SCL-20 AVP equipped with a Bioscan Flow Count 3200 NaI/PMT γ-radiation scintillation detector and a SPD-20A UV detector, λ = 254 nm. A Venusil MP C18 reverse phase column (Agela Technologies, 5 μm, 4.6 × 250 mm) was used for separations and purity determinations with a binary gradient system (acetonitrile: water = 80%: 20%) at a 1.0 mL/min flow rate. Fluorescent observation was performed on the Axio Observer Z1 inverted fluorescence microscope (Zeiss, Germany) equipped with a DAPI filter set (excitation, 405 nm). Post-mortem brain sections from an autopsy-confirmed AD subject and a control subject were acquired from the Chinese Brain Bank. Transgenic mice (APPswe/PSEN1, male) and wild-type mice (C57BL6, male) were purchased from the Institute of Laboratory Animal Science, Chinese Academy of Medical Sciences. Normal ICR mice (20–22 g, male) were used for in vivo biodistribution, dynamic PET/CT and SPECT/CT scans, and biostability experiments. All experiments on mice were performed in accordance with the guidelines approved by the animal care committee of Beijing Normal University and Xiamen University.

Chain of Aβ42 aggregates (P05067 672-713 limits assumed): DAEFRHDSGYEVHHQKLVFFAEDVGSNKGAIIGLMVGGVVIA

Ki (Aβ42 aggregates): 19.5 nM
SMILES: FCCOc1ccc(OCc2ccc(I)cc2)cc1 [7a]

Ki (Aβ42 aggregates): 23.9 nM
SMILES: FCCOc1ccc(COc2ccc(I)cc2)cc1 [12a]

Percentage of Parent tracer, Brain ([1]; post-injection time 2 min): 92.1%
Percentage of Parent tracer, Feces ([1]; post-injection time 2 min): 0.0%
Percentage of Parent tracer, Liver ([1]; post-injection time 2 min): 49.1%
Percentage of Parent tracer, Plasma ([1]; post-injection time 2 min): 88.4%
Percentage of Parent tracer, Urine ([1]; post-injection time 2 min): 0.0%
Percentage of Parent tracer, Brain ([1]; post-injection time 10 min): 82.1%
Percentage of Parent tracer, Feces ([1]; post-injection time 10 min): 0.0%
Percentage of Parent tracer, Liver ([1]; post-injection time 10 min): 21.5%
Percentage of Parent tracer, Plasma ([1]; post-injection time 10 min): 29.6%
Percentage of Parent tracer, Urine ([1]; post-injection time 10 min): 0.0%
Percentage of Parent tracer, Brain ([1]; post-injection time 30 min): 78.3%
Percentage of Parent tracer, Feces ([1]; post-injection time 30 min): 0.0%
Percentage of Parent tracer, Liver ([1]; post-injection time 30 min): 6.3%
Percentage of Parent tracer, Plasma ([1]; post-injection time 30 min): 26.3%
Percentage of Parent tracer, Urine ([1]; post-injection time 30 min): 0.0%
Percentage of Parent tracer, Brain ([1]; post-injection time 60 min): 68.6%
Percentage of Parent tracer, Feces ([1]; post-injection time 60 min): 0.0%
Percentage of Parent tracer, Liver ([1]; post-injection time 60 min): 3.8%
Percentage of Parent tracer, Plasma ([1]; post-injection time 60 min): 4.68%
Percentage of Parent tracer, Urine ([1]; post-injection time 60 min): 0.0%
logD [2]: 3.62 ± 0.15
in vitro autoradiography, plaque labeling (Aβ plaques): specifically label Aβ deposits
brain2 min/brain60 min ratio [3]: 14.2
Biodistribution of radioactivity, blood ([3]; 2 min): 4.96 ± 0.35 % injected dose per gram
Biodistribution of radioactivity, heart ([3]; 2 min): 6.61 ± 1.42 % injected dose per gram
Biodistribution of radioactivity, intestine ([3]; 2 min): 4.81 ± 0.97 % injected dose per organ
Biodistribution of radioactivity, kidney ([3]; 2 min): 9.16 ± 0.59 % injected dose per gram
Biodistribution of radioactivity, liver ([3]; 2 min): 18.12 ± 2.34 % injected dose per gram
Biodistribution of radioactivity, lung ([3]; 2 min): 10.30 ± 2.16 % injected dose per gram
Biodistribution of radioactivity, muscle ([3]; 2 min): 3.47 ± 0.45 % injected dose per gram
Biodistribution of radioactivity, pancreas ([3]; 2 min): 6.45 ± 0.56 % injected dose per gram
Biodistribution of radioactivity, spleen ([3]; 2 min): 2.85 ± 0.30 % injected dose per gram
Biodistribution of radioactivity, stomach ([3]; 2 min): 1.30 ± 0.14 % injected dose per organ
Biodistribution of radioactivity, thyroid ([3]; 2 min): 0.13 ± 0.02 % injected dose per organ
Biodistribution of radioactivity, brain ([3]; 2 min, listed as [125I]12a): 5.27 ± 0.98 % injected dose per gram
Biodistribution of radioactivity, blood ([3]; 10 min): 3.88 ± 0.79 % injected dose per gram
Biodistribution of radioactivity, brain ([3]; 10 min): 2.28 ± 0.27 % injected dose per gram
Biodistribution of radioactivity, heart ([3]; 10 min): 2.12 ± 0.16 % injected dose per gram
Biodistribution of radioactivity, intestine ([3]; 10 min): 10.68 ± 2.60 % injected dose per organ
Biodistribution of radioactivity, kidney ([3]; 10 min): 7.61 ± 1.23 % injected dose per gram
Biodistribution of radioactivity, liver ([3]; 10 min): 12.07 ± 1.06 % injected dose per gram
Biodistribution of radioactivity, lung ([3]; 10 min): 4.16 ± 0.26 % injected dose per gram
Biodistribution of radioactivity, muscle ([3]; 10 min): 1.31 ± 0.12 % injected dose per gram
Biodistribution of radioactivity, pancreas ([3]; 10 min): 2.44 ± 0.28 % injected dose per gram
Biodistribution of radioactivity, spleen ([3]; 10 min): 1.29 ± 0.06 % injected dose per gram
Biodistribution of radioactivity, stomach ([3]; 10 min): 1.34 ± 0.16 % injected dose per organ
Biodistribution of radioactivity, thyroid ([3]; 10 min): 0.13 ± 0.01 % injected dose per organ
Biodistribution of radioactivity, blood ([3]; 30 min): 3.89 ± 0.53 % injected dose per gram
Biodistribution of radioactivity, brain ([3]; 30 min): 0.81 ± 0.06 % injected dose per gram
Biodistribution of radioactivity, heart ([3]; 30 min): 1.67 ± 0.09 % injected dose per gram
Biodistribution of radioactivity, intestine ([3]; 30 min): 16.61 ± 3.88 % injected dose per organ
Biodistribution of radioactivity, kidney ([3]; 30 min): 7.44 ± 0.90 % injected dose per gram
Biodistribution of radioactivity, liver ([3]; 30 min): 8.68 ± 1.02 % injected dose per gram
Biodistribution of radioactivity, lung ([3]; 30 min): 3.56 ± 0.38 % injected dose per gram
Biodistribution of radioactivity, muscle ([3]; 30 min): 0.99 ± 0.17 % injected dose per gram
Biodistribution of radioactivity, pancreas ([3]; 30 min): 1.75 ± 0.10 % injected dose per gram
Biodistribution of radioactivity, spleen ([3]; 30 min): 1.03 ± 0.10 % injected dose per gram
Biodistribution of radioactivity, stomach ([3]; 30 min): 2.02 ± 0.49 % injected dose per organ
Biodistribution of radioactivity, thyroid ([3]; 30 min): 0.19 ± 0.04 % injected dose per organ
Biodistribution of radioactivity, blood ([3]; 60 min): 3.01 ± 1.07 % injected dose per gram
Biodistribution of radioactivity, brain ([3]; 60 min): 0.37 % injected dose per gram
Biodistribution of radioactivity, heart ([3]; 60 min): 1.17 ± 0.45 % injected dose per gram
Biodistribution of radioactivity, intestine ([3]; 60 min): 18.84 ± 8.75 % injected dose per organ
Biodistribution of radioactivity, kidney ([3]; 60 min): 6.09 ± 2.17 % injected dose per gram
Biodistribution of radioactivity, liver ([3]; 60 min): 4.64 ± 0.77 % injected dose per gram
Biodistribution of radioactivity, lung ([3]; 60 min): 3.11 ± 1.02 % injected dose per gram
Biodistribution of radioactivity, muscle ([3]; 60 min): 1.20 ± 0.26 % injected dose per gram
Biodistribution of radioactivity, pancreas ([3]; 60 min): 1.37 ± 0.41 % injected dose per gram
Biodistribution of radioactivity, spleen ([3]; 60 min): 0.84 ± 0.31 % injected dose per gram
Biodistribution of radioactivity, stomach ([3]; 60 min): 2.27 ± 0.40 % injected dose per organ
Biodistribution of radioactivity, thyroid ([3]; 60 min): 0.34 ± 0.10 % injected dose per organ
Biodistribution of radioactivity, brain ([3]; 60 min, listed as [125I]12a): 0.37 ± 0.06 % injected dose per gram
SMILES: FCCOc1ccc(COc2ccc([125I])cc2)cc1 [[^125I]12a]
Biodistribution of radioactivity, brain ([3]; 2 min): > 5 % injected dose per gram and 5.27 % injected dose per gram

Source: article PMC4501006, “Preliminary Characterization and In Vivo Studies of Structurally Identical ^18F- and ^125I-Labeled Benzyloxybenzenes for PET/SPECT Imaging of β-Amyloid Plaques” (Scientific Reports, 2015)
